The source of these data is EP3741762A1, “OXALAMIDO-SUBSTITUTED TRICYCLIC INHIBITORS OF HEPATITIS B VIRUS” (priority 2019, dated 2020).

For the test, the system named is HBV. Nature of the test: Anti-HBV activity in vitro: quantification of extracellular HBV DNA by direct qPCR in HepAD38 cells. In kind it is cell-based. The following applies: Hepatitis B virus, tetracycline-free medium, 96 hours at 37°C, reported as EC50 threshold value, read-out: HBV inh EC50. From the text: HepAD38 cell line (Ladner et al., Antimicrob Agents Chemother, 1997, 41, 1715-20) was used for HBV inhibition assays. HepAD38 is a subclone, derived from Hepatoblastoma cell line HepG2 (ATCC® Number: HB-8065™), that expresses HBV genome under the transcriptional control of a tetracycline-responsive promoter in a TET-OFF system: addition of tetracycline (TET) or doxycycline suppresses HBV replication, while its removal switches on the process allowing HBV viral particles release in the cell supernatant. HepAD38 cell line is maintained in DMEM/F12, supplemented with 10% of fetal bovine serum, 1% of glutamine, 1% of penicillin/streptomycin, 0.4 mg/ml G418 and 0,3 ug/ml tetracycline. For the HBV inhibition assay, doxycycline-free medium is used in order to allow virion production.
HBV inhibition activity in vitro was performed in 96 multiwell plates. During the initial (primary) screening, compounds were first tested in triplicates at concentrations of 0.02 µM, 0.1 µM, 0.5µM and 1µM. For selected compounds, an 8-point dose-response curve was obtained using 1:2 serial dilutions (starting from 0.01µM, 0.1µM, 0.4µM or 5 µM, depending on the degree of inhibition observed during the primary screening). From the dose-response curves, half maximal effective concentration (EC50) could be calculated (see also below).
In more detail, compounds - typically dissolved in DMSO stock solutions - were diluted to 2x the final desired concentration in 100 µl of the above medium (without doxycycline) and plated in three replicates in the 96-well plates.
Simultaneously, HepAD38 cells - extensively pre-washed in tetracycline-free medium in order to induce HBV production - were suspended at 2^∗10^4 cells in 100 µl of tetracycline-free medium and added to each well of the plate, to yield a final assay volume of 200 µl DMSO - used for stock solutions and compounds dilutions - which was always present in the assays at a final concentration of 0.5%.
Plates were then incubated 96 hours at 37°C and then subjected to cell viability assays and extracellular HBV quantification, in order to evaluate both the cytotoxic potential and the antiviral activity of compounds. Cytotoxicity was assessed by a commercial fluorescence assay that measures the metabolic activity of cells, directly related to cell viability (Cell Titer Blue, Promega). Anti-HBV activity was evaluated by quantification of extracellular HBV DNA with direct qPCR. In particular, supernatant was collected and centrifuged for cell debris clarification, viral DNA was extracted from virions by addition of lysis buffer (1 mM 1,4-dithiothreitol, 0.2% sodium dodecyl sulphate) and incubated at 95°C for 10 min. Samples were then diluted 1:40 and real time PCR amplification was performed with SYBR green assay (Power SYBR™ Green PCR Master Mix-Thermo Fisher Scientific) and specific HBV primer (HBV-DF:5'-[…]-3' (SEQ ID No. 1), HBV-DR:5'-[…]-3' (SEQ ID No.2)).
Antiviral activity data for each compound are reported as EC50 threshold value (see Table 1 legend). Excel and Graphpad Prism programs are typically used for data elaboration and EC50 calculation.
(Quantitative PCR measures a nucleic acid by following its amplification.)
For the compound `CN(C)C(=O)C(=O)N1C[C@@H]2COc3c(cn(C)c3C(=O)Nc3cc(F)c(F)c(F)c3)S(=O)(=O)N[C@@H]2C1` (relative stereo) [Example E1, cis-2-(2-(dimethylamino)-2-oxoacetyl)-7-methyl-N-(3,4,5-trifluorophenyl)-2,3,3a,4,10,10a-hexahydro-1H,7H-dipyrrolo[3,4-b:3',4'-f][1,4,5]oxathiazocine-8-carboxamide 5,5-dioxide], the EC50 (usually the midpoint of the concentration-response curve) is under 500 nM.

Regarding `Cc1cc(NC(=O)c2c3c(cn2C)S(=O)(=O)N[C@@H]2CN(C(=O)C(=O)NC4(C)COC4)C[C@@H]2CO3)ccc1F` (relative stereo) [Example E2, cis-N-(4-fluoro-3-methylphenyl)-7-methyl-2-(2-((3-methyloxetan-3-yl)amino)-2-oxoacetyl)-2,3,3a,4,10,10a-hexahydro-1H,7H-dipyrrolo[3,4-b:3',4'-f][1,4,5]oxathiazocine-8-carboxamide 5,5-dioxide], the EC50 is under 500 nM.

In the case of `CNC(=O)C(=O)N1C[C@@H]2COc3c(cn(C)c3C(=O)Nc3ccc(F)c(C)c3)S(=O)(=O)N[C@@H]2C1` (relative stereo) [Example E10, cis N-(4-fluoro-3-methylphenyl)-7-methyl-2-(2-(methylamino)-2-oxoacetyl)-2,3,3a,4,10,10a-hexahydro-1H,7H-dipyrrolo[3,4-b:3',4'-f][1,4,5]oxathiazocine-8-carboxamide 5,5-dioxide], the EC50 was under 500 nM.

For the compound `Cc1cc(NC(=O)c2c3c(cn2C)S(=O)(=O)N[C@@H]2CN(C(=O)C(N)=O)C[C@@H]2CO3)ccc1F` (relative stereo) [Example E11, cis-2-(2-amino-2-oxoacetyl)-N-(4-fluoro-3-methylphenyl)-7-methyl-2,3,3a,4,10,10a-hexahydro-1H,7H-dipyrrolo[3,4-b:3',4'-f][1,4,5]oxathiazocine-8-carboxamide 5,5-dioxide], the EC50 is under 500 nM.

Regarding `CNC(=O)C(=O)N1C[C@@H]2COc3c(cn(C)c3C(=O)Nc3cc(F)c(F)c(F)c3)S(=O)(=O)N[C@@H]2C1` (relative stereo) [Example E12, cis-7-methyl-2-(2-(methylamino)-2-oxoacetyl)-N-(3,4,5-trifluorophenyl)-2,3,3a,4,10,10a-hexahydro-1H,7H-dipyrrolo[3,4-b:3',4'-f][1,4,5]oxathiazocine-8-carboxamide 5,5-dioxide], the concentration for a half-maximal effect (EC50) was under 500 nM.

Turning to `Cn1cc2c(c1C(=O)Nc1cc(F)c(F)c(F)c1)OC[C@H]1CN(C(=O)C(N)=O)C[C@H]1NS2(=O)=O` (relative stereo) [Example E13, cis-2-(2-amino-2-oxoacetyl)-7-methyl-N-(3,4,5-trifluorophenyl)-2,3,3a,4,10,10a-hexahydro-1H,7H-dipyrrolo[3,4-b:3',4'-f][1,4,5]oxathiazocine-8-carboxamide 5,5-dioxide], the EC50 was under 500 nM.

As for `Cc1cc(NC(=O)c2c3c(cn2C)S(=O)(=O)N[C@@H]2CN(C(=O)C(=O)NC4CC4)C[C@]2(C)CO3)ccc1F` (relative stereo) [Example E25, cis-2-(2-(cyclopropylamino)-2-oxoacetyl)-N-(4-fluoro-3-methylphenyl)-7,10a-dimethyl-2,3,3a,4,10,10a-hexahydro-1H,7H-dipyrrolo[3,4-b:3',4'-f][1,4,5]oxathiazocine-8-carboxamide 5,5-dioxide], the 50% effective concentration (EC50) was under 500 nM.

On to `Cc1cc(NC(=O)c2c3c(cn2C)S(=O)(=O)N[C@]2(C)CN(C(=O)C(=O)NC4CC4)C[C@@H]2CO3)ccc1F` (relative stereo) [Example E28, cis-2-(2-(cyclopropylamino)-2-oxoacetyl)-N-(4-fluoro-3-methylphenyl)-3a,7-dimethyl-2,3,3a,4,10,10a-hexahydro-1H,7H-dipyrrolo[3,4-b:3',4'-f][1,4,5]oxathiazocine-8-carboxamide 5,5-dioxide], for which the concentration for a half-maximal effect (EC50) was under 500 nM.

On to `Cc1cc(NC(=O)c2c3c(cn2C)S(=O)(=O)N[C@@H]2CN(C(=O)C(=O)NC4CC4)C[C@H]2CO3)ccc1F` (relative stereo) [Example E31, trans-2-(2-(cyclopropylamino)-2-oxoacetyl)-N-(4-fluoro-3-methylphenyl)-7-methyl-2,3,3a,4,10,10a-hexahydro-1H,7H-dipyrrolo[3,4-b:3',4'-f][1,4,5]oxathiazocine-8-carboxamide 5,5-dioxide], for which the EC50 is under 500 nM.

Take `Cc1cc(NC(=O)c2c3c(cn2C)S(=O)(=O)N[C@@H]2CN(C(=O)C(=O)N[C@H](C)C(F)(F)F)C[C@]2(C)CO3)ccc1F` (stereo in doubt) [Example E26, Cis-N-(4-fluoro-3-methylphenyl)-7,10a-dimethyl-2-(2-oxo-2-(((R)-1,1,1-trifluoropropan-2-yl)amino)acetyl)-2,3,3a,4,10,10a-hexahydro-1H,7H-dipyrrolo[3,4-b:3',4'-f][1,4,5]oxathiazocine-8-carboxamide 5,5-dioxide]: the concentration for a half-maximal effect (EC50) was under 500 nM.

As for `Cc1cc(NC(=O)c2c3c(cn2C)S(=O)(=O)N[C@]2(C)CN(C(=O)C(=O)N[C@H](C)C(F)(F)F)C[C@@H]2CO3)ccc1F` (stereo in doubt) [Example E27, Cis-N-(4-fluoro-3-methylphenyl)-3a,7-dimethyl-2-(2-oxo-2-(((R)-1,1,1-trifluoropropan-2-yl)amino)acetyl)-2,3,3a,4,10,10a-hexahydro-1H,7H-dipyrrolo[3,4-b:3',4'-f][1,4,5] oxathiazocine-8-carboxamide 5,5-dioxide], the EC50 was under 500 nM.

For the compound `Cc1cc(NC(=O)c2c3c(cn2C)S(=O)(=O)N[C@@H]2CN(C(=O)C(=O)N[C@H](C)C(F)(F)F)C[C@H]2CO3)ccc1F` (stereo in doubt) [Example E30, trans-N-(4-fluoro-3-methylphenyl)-7-methyl-2-(2-oxo-2-(((R)-1,1,1-trifluoropropan-2-yl)amino)acetyl)-2,3,3a,4,10,10a-hexahydro-1H,7H-dipyrrolo[3,4-b:3',4'-f][1,4,5]oxathiazocine-8-carboxamide 5,5-dioxide], the half-maximal effective concentration (EC50) was under 500 nM.

As for `Cc1cc(NC(=O)c2c3c(cn2C)S(=O)(=O)N[C@H]2CN(C(=O)C(=O)NC4(C)COC4)C[C@H]2CO3)ccc1F` [Example E3, (3aR,10aR)-N-(4-fluoro-3-methylphenyl)-7-methyl-2-(2-((3-methyloxetan-3-yl)amino)-2-oxoacetyl)-2,3,3a,4,10,10a-hexahydro-1H,7H-dipyrrolo[3,4-b:3',4'-f][1,4,5]oxathiazocine-8-carboxamide 5,5-dioxide], the half-maximal effective concentration (EC50) is under 500 nM.

Take `Cn1cc2c(c1C(=O)Nc1cc(F)c(F)c(F)c1)OC[C@@H]1CN(C(=O)C(=O)NC3(C)COC3)C[C@@H]1NS2(=O)=O` [Example E4, (3aR,10aR)-7-methyl-2-(2-((3-methyloxetan-3-yl)amino)-2-oxoacetyl)-N-(3,4,5-trifluorophenyl)-2,3,3a,4,10,10a-hexahydro-1H,7H-dipyrrolo[3,4-b:3',4'-f][1,4,5]oxathiazocine-8-carboxamide 5,5-dioxide]: the EC50 is under 500 nM.

For `Cn1cc2c(c1C(=O)Nc1ccc(F)c(Cl)c1)OC[C@@H]1CN(C(=O)C(=O)NC3(C)COC3)C[C@@H]1NS2(=O)=O` [Example E5, (3aR,10aR)-N-(3-chloro-4-fluorophenyl)-7-methyl-2-(2-((3-methyloxetan-3-yl)amino)-2-oxoacetyl)-2,3,3a,4,10,10a-hexahydro-1H,7H-dipyrrolo[3,4-b:3',4'-f][1,4,5] oxathiazocine-8-carboxamide 5,5-dioxide], the half-maximal effective concentration (EC50) was under 500 nM.

For `Cn1cc2c(c1C(=O)Nc1ccc(F)c(C#N)c1)OC[C@@H]1CN(C(=O)C(=O)NC3(C)COC3)C[C@@H]1NS2(=O)=O` [Example E6, (3aR,10aR)-N-(3-cyano-4-fluorophenyl)-7-methyl-2-(2-((3-methyloxetan-3-yl)amino)-2-oxoacetyl)-2,3,3a,4,10,10a-hexahydro-1H,7H-dipyrrolo[3,4-b:3',4'-f][1,4,5] oxathiazocine-8-carboxamide 5,5-dioxide], the EC50 was over 500 nM.

Consider `Cc1cc(NC(=O)c2c3c(cn2C)S(=O)(=O)N[C@H]2CN(C(=O)C(=O)NC(C)(C)C)C[C@H]2CO3)ccc1F` [Example E7, (3aR,10aR)-2-(2-(tert-butylamino)-2-oxoacetyl)-N-(4-fluoro-3-methylphenyl)-7-methyl-2,3,3a,4,10,10a-hexahydro-1H,7H-dipyrrolo[3,4-b:3',4'-f][1,4,5]oxathiazocine-8-carboxamide 5,5-dioxide], for which the EC50 was under 500 nM.
